# Data reported in patent US9271978B2 (Zenith Epigenetics Corp., priority 2012, dated 2016).
# Key:
# [1] = target: T1, Brd4 bromodomain 1 (BRD4(1)) (Homo sapiens, UniProt O60885); experiment: Inhibition of tetra-acetylated histone H4 binding to Brd4 bromodomain 1 (TR-FRET); parameters: key: Active: Compounds with an IC50 value less than 30 μM were deemed to be active.; Not Active: Compounds with an IC50 value less than 30 μM were deemed to be active; conditions: tetra-acetylated histone H4 peptide, active = IC50 <30 μM
# T1 construct: Illustrative results with the first bromodomain of Brd4; made in house; host or cells: E. coli BL21 (DE3)
# Summary of the method: (§1)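 N-terminally His-tagged bromodomains (200 nM), expressed in E. coli, were incubated with biotinylated tetra-acetylated histone H4 peptide (25-50 nM), Eu-cryptate streptavidin and XL665 anti-His antibody in HEPES pH 7.4 buffer with KF, 0.2% DMSO, 2 h at room temperature. Inhibition read as decreased 665/620 nm TR-FRET; IC50 from dose-response curves.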
# [2] = test system: human AML MV-4-11 (CRL-9591) cells; experiment: Inhibition of cell proliferation in MV4-11 cells; assay type: cell-based; parameters: key: Active: Compounds with an IC50 value less than 30 μM were deemed to be active.; Not Active: Compounds with an IC50 value less than 30 μM were deemed to be active; conditions: human AML MV-4-11 cells, 72 h; active = IC50 <30 μM
# Summary of the method: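 Exponentially growing MV-4-11 cells (5×10^4/well) were treated immediately with two-fold dilutions of compound from 30 μM to 0.2 μM, in triplicate, for 72 h at 37° C, 5% CO2. Viability was measured by MTS absorbance at 490 nm after 3–4 h. Proliferation relative to DMSO after blank correction gave IC50.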
# [3] = test system: c-myc; experiment: Inhibition of c-myc expression in MV4-11 cells (mRNA, real-time PCR); assay type: cell-based; parameters: key: Active: Compounds with an IC50 value less than 30 μM were deemed to be active.; Not Active: Compounds with an IC50 value less than 30 μM were deemed to be active; conditions: Human AML MV4-11 cells, 3 h incubation
# Summary of the method: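 MV4-11 cells (2.5×10^4) treated with compound or 0.1% DMSO for 3 h at 37 °C. c-myc mRNA measured by RT real-time PCR duplexed with cyclophilin. IC50 from dose–response curve.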
# [4] = test system: hIL-6 mRNA; experiment: Inhibition of hIL-6 mRNA transcription in U937 cells; assay type: cell-based, human; parameters: key: Active: Compounds with an IC50 value less than 30 μM were deemed to be active.; Not Active: Compounds with an IC50 value less than 30 μM were deemed to be active; conditions: LPS stimulation, active = IC50 <30 μM
# Summary of the method: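 U937 cells differentiated 3 days with 60 ng/mL PMA, pretreated 1 h with compound, then stimulated with 1 ug/mL E. coli LPS for 3 h at 37° C. hIL-6 mRNA quantified by one-step qRT-PCR, Ct normalized to internal control, expressed as fold induction relative to control.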
# [5] = test system: ApoA-I mRNA; experiment: Up-regulation of hApoA-1 mRNA transcription in Huh7 cells; assay type: cell-based, human; parameters: key: Active: Compounds with an EC170 value less than 30 μM were deemed to be active; conditions: 48 h treatment, ApoA-I mRNA by real-time PCR, Active = EC170 less than 30 μM
# Procedure: In this example, ApoA-I mRNA in tissue culture cells was quantitated to measure the transcriptional up-regulation of ApoA-I when treated with a compound of the present disclosure.
# Huh7 cells (2.5×10^5 per well) were plated in a 96-well plate using 100 μL DMEM per well, (Gibco DMEM supplemented with penicillin/streptomycin and 10% FBS), 24 h before the addition of the compound of interest. After 48 h treatment, the spent media was removed from the Huh-7 cells and placed on ice (for immediate use) or at −80° C. (for future use) with the “LDH cytotoxicity assay Kit II” from Abcam. The cells remaining in the plate were rinsed with 100 μL PBS.
# Then 85 μL of cell lysis solution was added to each well and incubated for 5-10 min at room temperature, to allow for complete cell lysis and detachment. mRNA was then prepared using the “mRNA Catcher PLUS plate” from Life Technologies, according to the protocol supplied. After the last wash, as much wash buffer as possible was aspirated without allowing the wells to dry. Elution Buffer (E3, 80 μL) was then added to each well. mRNA was then eluted by incubating the mRNA Catcher PLUS plate with Elution Buffer for 5 min at 68° C., and then 1 min at 4° C. Catcher plates with mRNA eluted were kept on ice for use or stored at −80° C.
# The eluted mRNA isolated was then used in a one-step real-time PCR reaction, using components of the Ultra Sense Kit together with Life Technologies primer-probe mixes. Real-time PCR data was analyzed, using the Ct values, to determine the fold induction of each unknown sample, relative to the control (that is, relative to the control for each independent DMSO concentration).
# Compounds with an EC170 value less than 30 μM were deemed to be active.
# [6] = target: T2, second bromodomain of Brd2 (BRD2(2)) (Homo sapiens, UniProt P25440); experiment: Inhibition of tetra-acetylated histone H4 binding to Brd2 bromodomain 2 (TR-FRET); parameters: key: Active: Compounds with an IC50 value less than 30 μM were deemed to be active.; Not Active: Compounds with an IC50 value less than 30 μM were deemed to be active; conditions: tetra-acetylated histone H4 peptide, active = IC50 <30 μM
# T2 construct: made in house; host or cells: E. coli BL21 (DE3)
# Summary of the method: as §1
# T2 sequence (P25440 344-453 limits assumed): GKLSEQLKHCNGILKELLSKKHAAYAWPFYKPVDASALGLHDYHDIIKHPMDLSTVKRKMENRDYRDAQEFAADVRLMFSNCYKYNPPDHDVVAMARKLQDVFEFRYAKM
Structure (SMILES),FRET activity (IC50 <30 μM) BRD4(1) [1],Cell Proliferation activity (IC50 <30 μM) [2],c-myc activity (IC50 <30 μM) [3],IL-6 activity (IC50 <30 μM) [4],ApoA-1 activity (EC170 <30 μM) [5],FRET activity (IC50 <30 μM) BRD2(2) [6]
"Cc1noc(C)c1-c1cc(N)c(=O)n(Cc2ccc(Cl)cc2)n1 [Example 233, 4-amino-2-(4-chlorobenzyl)-6-(3,5-dimethylisoxazol-4-yl)pyridazin-3(2H)-one]",Active,Active,Active,Active,Active,
"Cc1noc(C)c1-c1cc(Nc2ccccc2)c(=O)n(Cc2ccc(F)cc2)c1 [Example 182, 5-(3,5-dimethylisoxazol-4-yl)-1-(4-fluorobenzyl)-3-(phenylamino)pyridin-2(1H)-one]",Active,Not Active,Active,Active,Active,
"Cc1noc(C)c1-c1cc(N2CCOCC2)c(=O)n(Cc2ccccc2)c1 [Example 190, 1-benzyl-5-(3,5-dimethylisoxazol-4-yl)-3-morpholinopyridin-2(1H)-one]",Active,Active,Active,Not Active,Active,
"Cc1nscc1-c1ccc(=O)n(Cc2ccccc2)c1 [Example 160, 1-Benzyl-5-(3-methylisothiazol-4-yl)pyridin-2(1H)-one]",Active,,,,Active,
"Cc1noc(C)c1-c1cc(N2CCC2)c(=O)n(Cc2ccccc2)c1 [Example 183, 3-(Azetidin-1-yl)-1-benzyl-5-(3,5-dimethylisoxazol-4-yl)pyridin-2(1H)-one]",Active,Active,Active,,Active,
"Cc1noc(C)c1-c1cn(Cc2ccccc2)c(=O)cn1 [Example 6, 1-Benzyl-5-(3,5-dimethylisoxazol-4-yl)pyrazin-2(1H)-one]",Active,Active,,Active,Active,Active
"Cc1noc(C)c1-c1cc(Nc2ccccc2)c(=O)n(Cc2ccccc2)c1 [Example 72, 1-Benzyl-5-(3,5-dimethylisoxazol-4-yl)-3-(phenylamino)pyridin-2(1H)-one]",Active,,Active,Active,Active,Active
"Cc1noc(C)c1Nc1cc(-c2c(C)noc2C)cn(Cc2ccccc2)c1=O [Example 217, 1-benzyl-5-(3,5-dimethylisoxazol-4-yl)-3-((3,5-dimethylisoxazol-4-yl)amino)pyridin-2(1H)-one]",Active,,,Not Active,Active,
"Cc1onc(CO)c1-c1ccc(=O)n(Cc2ccccc2)c1 [Example 158, 1-Benzyl-5-(3-(hydroxymethyl)-5-methylisoxazol-4-yl)pyridin-2(1H)-one]",Active,,,,Active,
"Cc1noc(C)c1-c1ccc(=O)n(Cc2ccc(Cl)c(Cl)c2)c1 [Example 155, 1-(3,4-Dichlorobenzyl)-5-(3,5-dimethylisoxazol-4-yl)pyridin-2(1H)-one]",Active,,,,Active,
"C=Cc1ccc(Cn2cc(-c3c(C)noc3C)ccc2=O)cc1 [Example 218, 5-(3,5-Dimethylisoxazol-4-yl)-1-(4-vinylbenzyl)pyridin-2(1H)-one]",Active,,,Active,Active,
"Cc1noc(C)c1-c1ccc(=O)n(C(C)c2ccccn2)c1 (stereo not drawn) [Example 112, 5-(3,5-Dimethylisoxazol-4-yl)-1-(1-(pyridin-2-yl)ethyl)pyridin-2(1H)-one]",Active,,,Not Active,Active,Active
"COc1cc(-c2ccc(=O)n(Cc3ccc(C#N)cc3)n2)cc(OC)c1OC [Example 16, 4-((6-Oxo-3-(3,4,5-trimethoxyphenyl)pyridazin-1(6H)-yl)methyl)benzonitrile]",Active,,Not Active,,Active,Active
"Cc1noc(CO)c1-c1ccc(=O)n(Cc2ccccc2)c1 [Example 214, 1-benzyl-5-(5-(hydroxymethyl)-3-methylisoxazol-4-yl)pyridin-2(1H)-one]",Active,,,Active,Active,
"Cc1noc(C)c1-c1cc(Nc2ccn(C)n2)c(=O)n(Cc2ccccc2)c1 [Example 184, 1-benzyl-5-(3,5-dimethylisoxazol-4-yl)-3-((1-methyl-1H-pyrazol-3-yl)amino)pyridin-2(1H)-one]",Active,Active,Active,,Active,
"Cc1noc(C)c1-c1ccc(=O)n([C@H](C)c2ccc(F)cc2)c1 (single isomer, unassigned) [Example 111]",Active,,,Active,Active,Active
"Cc1noc(C)c1-c1ccc(=O)n(Cc2ccc(C(F)(F)F)cc2)c1 [Example 7, 5-(3,5-Dimethylisoxazol-4-yl)-1-(4-(trifluoromethyl)benzyl)pyridin-2(1H)-one]",Active,Active,,Active,Active,Active
"Cc1noc(C)c1-c1ccc(=O)n(CCc2ccccc2)n1 [Example 1, 6-(3,5-Dimethylisoxazol-4-yl)-2-phenethylpyridazin-3(2H)-one]",Active,Not Active,Not Active,Not Active,,Active
"Cc1noc(C)c1-c1cc(Nc2cccc(F)c2)c(=O)n(Cc2ccccc2)c1 [Example 157, 1-Benzyl-5-(3,5-dimethylisoxazol-4-yl)-3-((3-fluorophenyl)amino)pyridin-2(1H)-one]",Active,,,,Active,
